Measurements taken from patent US5010204A, “Acetazolamide-related compounds, process for their preparation, and pharmaceutical composition containing the same” (Instituto Chimico Internazionale Dr. Giuseppe Rende S.r.l., priority 1988, dated 1991).
≈ marks a conversion by molar mass, not a printed value.

What was measured:
[1] = in words; cited from earlier work
[2] = in words; cited from earlier work; remark: listed apart in the source
carbonic anhydrase = assay: in vitro inhibition of carbonic anhydrase (enzymic activity), CO2-electrode potentiometric analysis; format: biochemical; conditions: samples at 10^-7, 3×10^-7, 6×10^-7 and 10^-6 molar; read-out: I50 (molar concentration that gives a 50% reduction of enzymic activity)
Excerpt: For determining the in vitro activities, samples were employed at molar concentrations of 10^-7, 3×10^-7, 6×10^-7, and 10^-6, and the results given in Table 1 were obtained by CO2 -electrode potentiometric analysis.

[3] = tested on: ocular pressure in rabbit; assay: decrease in ocular pressure in rabbit, transient ocular hypertension model (5% glucose infusion), topical instillation; format: in vivo; set-up: endoocular pressure, 10' OS / endoocular pressure, 20' OC / endoocular pressure, 40' OS: unit not given beside the values; conditions: for endoocular pressure, 10' OS / endoocular pressure, 20' OS / endoocular pressure, 40' OS: left eye (diluent-treated fellow eye, control); for endoocular pressure, 10' OS / endoocular pressure, 10' OD: 10 minutes; for endoocular pressure, 20' OS / endoocular pressure, 20' OC: 20 minutes; for endoocular pressure, 40' OS / endoocular pressure, 40' OD: 40 minutes; for endoocular pressure, 10' OD / endoocular pressure, 20' OC / endoocular pressure, 40' OD: right eye (drug-treated, 2 drops of 2% solution)
Method: In vivo experiments were carried out on the compounds of the present invention, and, amongst the others, those experiments whose results are reported in the following Table 2, concerning the decrease in the ocular pressure in rabbit.
For determining such results a transient ocular hypertension model was employed, said hypertension being obtained in rabbit through rapid venous infusion of suitable volumes (20 ml/kg) of 5% glucose solution.
Albino rabbits from the same farm in New Zealand were employed, whose weights were between 2,500 e 3,000 g. Each treatment was carried out on a group of six animals.
The drug was prepared in a phosphate buffer water solution at pH 7.5. The solution was made isotonic with sodium chloride and the possibility of microbial contamination was prevented through the addition of benzalkonium chloride. In case of compounds of low solubility, a dispersing suspension of the finely divided compound in methyl cellulose was prepared. The solution (or the suspension) was instilled into the right eye of each animal in the amount of 2 drops of 2% solution, at an interval of 2 minutes from one another. The left eye was treated with an equal volume of diluent.
The measurements of pressure were performed while animals were in superficial local anaesthesia (0.4% benoxinate), by means of a McKay-Marg electronic pressure gage, at the times -30', 0', 10', 20', 40'.
The following table reports the endoocular pressure measured after 10, 20, and 40 minutes both in the right and in the left eye: the higher the difference in the ocular pressure between the treated eye and the untreated eye, the higher the efficiency of the drug considered.

[4] = solubility in buffer pH 7.6; format: physicochemical; conditions: aqueous buffer
[5] = stability of the product (hydrolysis), observed on preparation; format: physicochemical; conditions: residue after reaction with liquid ammonia

Row | SMILES | water solubility [1] | absorption when instilled in the eye [2] | IC50 (carbonic anhydrase) [nM] | endoocular pressure, 10' OS [3] | endoocular pressure, 20' OS [3] | endoocular pressure, 40' OS [3] | endoocular pressure, 10' OD [3] | endoocular pressure, 20' OC [3] | endoocular pressure, 40' OD [3] | solubility [4] [µg/mL] | stability [5]
1 | CC(=O)Nc1nnc(S(N)(=O)=O)s1 [ACETAZOLAMIDE, 5-acetamido-2-sulfonamido-1,3,4-thiadiazole] | practically insoluble | poor absorption |  |  |  |  |  |  |  |  | 
2 | COC(=O)CCC(=O)Nc1nnc(S(N)(=O)=O)s1 [RENDE 023, 5-methylsuccinoylamino-2-sulfonamido-1,3,4-thiadiazole] |  |  | 550 | 25.5 | 20.17 | 16.67 | 25.33 | 19.5 | 16.5 | 740 (≈ 2.51 mM) | 
3 | COC(=O)CCC(=O)N=c1sc(S(N)(=O)=O)nn1C [RENDE 024, 5-Methylsuccinoylamino-4-methyl-2-sulfonamido-1,3,4-thiadiazole] |  |  | 450 | 25.83 | 21.5 | 17.83 | 24.67 | 20.33 | 17.33 | 2250 (≈ 7.3 mM) | 
4 | NCCCCC(=O)Nc1nnc(S(N)(=O)=O)s1 [RENDE 027, 5-(5-Aminovaleroylamino)-2-sulfonamido-1,3,4-thiadiazole] |  |  | 440 | 26.17 | 21.5 | 17.33 | 24.0 | 20.83 | 16.83 | 208 (≈ 0.745 mM) | 
5 | CCOC(=O)CCC(=O)Nc1nnc(S(N)(=O)=O)s1 [RENDE 029, 5-Ethylsuccinoylamino-2-sulfonamido-1,3,4-thiadiazole] |  |  |  | 25.67 | 20.67 | 17.67 | 20.33 | 17.33 | 15.67 | 2760 (≈ 8.95 mM) | 
6 | CCCCCOC(=O)CCC(=O)Nc1nnc(S(N)(=O)=O)s1 [RENDE 032, 5-Pentylsuccinoylamino-2-sulfonamido-1,3,4-thiadiazole] |  |  | 390 | 24.5 | 21.33 | 18.83 | 22.67 | 20.0 | 17.83 | 470 (≈ 1.34 mM) | 
7 | CC(C)COC(=O)CCC(=O)Nc1nnc(S(N)(=O)=O)s1 [RENDE 034, 5-Isobutylsuccinoylamino-2-sulfonamido-1,3,4-thiadiazole] |  |  | 370 | 25.67 | 21.17 | 17.17 | 21.5 | 19.0 | 16.67 | 1240 (≈ 3.69 mM) | 
8 | CCCCCOC(=O)CCC(=O)N=c1sc(S(N)(=O)=O)nn1C [RENDE 035, 5-Pentylsuccinoylamino-4-methyl-2-sulfonamido-1,3,4-thiadiazole] |  |  | 307 | 25.17 | 22.0 | 18.0 | 24 | 20.67 | 17.83 | 535 (≈ 1.47 mM) | 
9 | NS(=O)(=O)c1nnc(NC(=O)CCC(=O)O)s1 [RENDE 037, 5-succinoylamino-2-sulfonamido-1,3,4-thiadiazolic acid] |  |  |  | 26.0 | 21.67 | 19.0 | 19.33 | 17.17 | 15.67 | 28700 (≈ 102 mM) | 
10 | NS(=O)(=O)c1nnc(NC(=O)CCC(=O)OCC(F)(F)F)s1 [Rende 039, 5-Trifluoroethylsuccinoylamino-2-sulfonamido-1,3,4-thiadiazole] |  |  |  |  |  |  |  |  |  |  | very unstable and becomes very easily hydrolysed
